Experimental data taken from US10561638B2, “Methods for treating dependence” (Biotie Therapies, Inc., priority 2007, dated 2020).

What was measured:
[1] = target: 5-HT1A serotonin receptors (Homo sapiens, UniProt P08908); assay: Radioligand binding assay
Experimental: (§1) The activity of nepicastat at twelve selected enzymes and receptors was determined using established assays. Binding data were analyzed by iterative curve-fitting to a four parameter logistic equation. Ki values were calculated from IC50 values using the Cheng-Prusoff equation. Enzyme inhibitory activity was expressed as IC50 (concentration required to produce 50% inhibition of enzyme activity).
(§2) The activity of nepicastat at eleven different enzymes was determined using established assays. The affinity of nepicastat for thirteen selected receptors was determined by radioligand binding assays using standard filtration techniques and membrane preparations. Binding data were analyzed by iterative curve fitting to a four parameter logistic equation. Ki values were calculated using the Cheng-Prusoff equation.
(§3) The binding affinity for nepicastat was screened at selected receptors. […] Thus nepicastat and its primary metabolite were not potent inhibitors for the receptors listed above.

[2] = target: 5-HT2A serotonin receptors (Homo sapiens, UniProt P28223); assay: Radioligand binding assay
Experimental: as §1, §2, §3

[3] = tested on: short-term or working memory in rats; assay: Delayed-matching-to-position (DMTP) test; format: in vivo, Sprague Dawley rats
Experimental: In the present DMTP study, rats were trained to remember the position of a lever across a scheduled delay of either 0, 8, 16 or 32 s in order to earn food reward. […] Another group of rats received only vehicle treatment throughout the experiment. […] The dependent measures in the present study included percentage of correct choices, the latency to make choice responses and the number of trials which the animals were able to complete during the 70 min test sessions. Changes in the former measure may indicate changes in memory and/or attentional function whereas changes in the latter two measures may be indicative of other non-cognitive effects of the drugs. Matching to position training began next. This and all subsequent training was conducted with the partitions fitted into the operant boxes. The sessions were initially 50 minutes long. Rats were placed in the operant box and the session began when the houselight was illuminated. Following a 30 s intertrial interval (ITI), one of the two levers (the sample lever) was inserted into the chamber. The lever remained inserted into the chamber until a lever-press response occurred. […] As soon as the magazine flap was pressed the magazine light was extinguished and both levers were inserted. […] The magazine light remained on until the flap was pressed. […] A 30 s ITI was initiated before the commencement of a new trial. The lever inserted as the sample lever was semi-randomly determined such that the right and lefthand levers were presented as the sample lever 8 times in a block of 16 trials. Following 24 sessions, the animals were performing the matching to position task with a high degree of accuracy. On Session 25 a variable delay interval was interposed between the depression of the sample lever and presentation of the levers on the choice trial. After a response to the sample lever, the choice levers were inserted following the first flap press occurring after either a 0 s (immediate), 4, 8 or 16 s delay. The order of the four types of trials (0, 4, 8 or 16 s delay) was semi-randomly determined with the constraint that in a 16 trial block, each delay occurred 4 times; twice on a left trial and twice on a right trial. […] The same trial was reinstated following the end of the ITI. From Session 25 onward the time-out period following incorrect choices was omitted and the session length was increased to 70 minutes. […] Due to poor performance at the 64 s delay, however, this delay was not used in any further sessions. On Session 59, delays of 0, 8, 16 and 32 s were used. These delays were used in all subsequent sessions. Only 51 of the 56 rats completed more than 24 trials (correction plus non-correction) during Session 59. These rats were selected and semi-randomly assigned to the following 7 groups such that the groups were matched on performance (percent correct, response latency and number of trials completed): […] Thus, the drug treatments administered to the seven groups during the 11 consecutive days of the present experiment were: The data collected and analyzed in the present DMTP study include 1) the percentage of correct responses; 2) the latency between performance of a response to the sample lever and the performance of the choice response and 3) the total number of correction and non-correction trials completed. The former two dependent measures were collected for the non-correction trials only. […] Two-way analysis of variance (ANOVA) with drug treatment as the between-subjects factor and delay (0, 8, 16 or 32 s) as the within-subjects factor was used to analyze percentage of correct choices and response latency. These analyses were conducted separately for each block of data. Significant interactions were followed by a one-way ANOVA which was conducted at each delay. A significant main effect from a one-way ANOVA was followed by a two-tailed Dunnett's t-test. One-way ANOVA followed by a post hoc Dunnett's test, when appropriate, was used to analyze the mean number of trials completed. […]

5-HT2A serotonin receptors, sequence (P28223 whole entry): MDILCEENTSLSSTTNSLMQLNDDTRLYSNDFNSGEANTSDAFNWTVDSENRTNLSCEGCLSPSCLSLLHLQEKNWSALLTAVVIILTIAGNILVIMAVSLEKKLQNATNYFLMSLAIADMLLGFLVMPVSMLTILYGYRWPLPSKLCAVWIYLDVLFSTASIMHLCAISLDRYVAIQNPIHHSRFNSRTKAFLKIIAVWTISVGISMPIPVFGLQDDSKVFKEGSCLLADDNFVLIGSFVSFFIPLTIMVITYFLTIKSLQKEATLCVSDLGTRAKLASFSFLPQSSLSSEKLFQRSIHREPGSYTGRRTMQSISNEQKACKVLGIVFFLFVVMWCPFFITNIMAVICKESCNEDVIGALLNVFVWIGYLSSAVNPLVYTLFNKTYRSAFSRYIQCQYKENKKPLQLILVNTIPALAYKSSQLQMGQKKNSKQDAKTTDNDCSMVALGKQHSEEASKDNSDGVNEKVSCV
5-HT1A serotonin receptors, sequence (P08908 whole entry): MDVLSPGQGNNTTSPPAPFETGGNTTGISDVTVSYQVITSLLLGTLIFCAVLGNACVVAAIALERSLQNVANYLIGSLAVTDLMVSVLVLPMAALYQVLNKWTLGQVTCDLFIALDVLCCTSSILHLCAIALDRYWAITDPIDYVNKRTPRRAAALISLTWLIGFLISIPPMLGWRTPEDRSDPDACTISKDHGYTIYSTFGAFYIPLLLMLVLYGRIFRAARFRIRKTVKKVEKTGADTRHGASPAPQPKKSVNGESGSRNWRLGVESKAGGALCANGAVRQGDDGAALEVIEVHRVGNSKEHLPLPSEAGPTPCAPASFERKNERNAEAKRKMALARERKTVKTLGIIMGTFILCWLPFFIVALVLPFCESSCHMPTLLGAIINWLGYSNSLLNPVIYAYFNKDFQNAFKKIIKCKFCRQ

Cl.NCc1c[nH]c(=S)n1[C@H]1CCc2c(F)cc(F)cc2C1 [nepicastat, (S)-5-Aminomethyl-1-(5,7-difluoro-1,2,3,4-tetrahydronaphth-2-yl)-2,3-dihydro-2-thioxo-1H-imidazole hydrochloride]
Ki [1]: > 10 µM
Ki [2]: > 10 µM
all dependent measures ([3]; Block 2): no significant effects on any of the dependent measures
latency to perform the choice response vs vehicle ([3]; Block 4, 32 s delay, nepicastat 10.0 mg/kg): longer latency to perform the choice response
response latency, number of trials completed ([3]; Block 5): did not significantly affect
choice accuracy ([3]; Block 5, 10 and 30 mg/kg at the 32 s delay): marked dose- and delay-dependent impairment in choice accuracy
improvement of DMTP performance ([3]; administered alone, 10 days): does not appear to induce memory enhancing effects
reversal of the effects of scopolamine ([3]; day 11 scopolamine test): did not appear to reverse the effects of scopolamine
days of dosing after which memory-disrupting effects are apparent ([3]; rat, in vivo): 8 days
